The values that follow come from patent publication US20030219456A1, “Method of utilization of zygosaccharomyces rouxii” (priority 2002, published 2003).

Common to all, as to format: biochemical
A short description of experiment [1]: DPPH free radical scavenging activity (preferred embodiment). Particulars: standard compounds 100 mg/ml (0.1 g/ml) in ethyl alcohol; OD 517 nm, 30 min. On the procedure:
Free radical scavenging activity was then evaluated. Standard solutions (0.1 g/ml in ethyl alcohol) of BHA, BHT and vitamin E were freshly prepared. DPPH scavenging activity was determined as described below. The following observations and results were then recorded: [table] Optical density OD was measured at 517 nm at 0 min and 30 min after mixing. Percent free radical scavenging activity was calculated as follows: Percent activity=100×{Ac1−(At2−Ab1)}/Ac2, Where Ac1=OD of control at 0 min At2=OD of test at 30 min Ab1=OD of blank at 0 min Ac2=OD of control at 30 min
On the technique in general: DPPH is a stable violet radical that fades when it is reduced.

A short description of experiment [2]: Peroxide value (POV) activity, modified Rodan's method. The settings on record: 0.1 g/ml in ethyl alcohol, 0.05 ml; 50° C., 3 days, dark; OD 500 nm. On the procedure:
Peroxide value (POV) activity was determined by a slightly modified Rodan's method (Terasawa, N., Yamazaki, N., and Fukui Y: Antioxidant activity of water extracts of herbs, Nippon Shokuhin Kagaku Kogaku Kaishi, 48, 2, 99-104, 2001.)
After mixing in a screw-capped test tube, the reaction mass was incubated inside a dark incubator at 50° C. for 3 days. The assay of liberated peroxide compounds was carried out as follows.
After 3 minutes, optical density was measured at 500 nm. Percent POV activity was calculated as follows:
Percent activity=100×(OD of sample or standard/OD of control)

The nature of experiment [3]: DPPH free radical scavenging activity (Example 9). The settings on record: standard compounds 100 mg/ml in ethyl alcohol. On the procedure:
The said Sample was washed with ethyl acetate to get organic acids crystallized out. The crystals mainly consisted of succinic acid, which was identified by RI and H-NMR. The remaining magma, called bio-polyphenols (BPP) was tested for its anti-oxidant activity. The BPP was dissolved in ethyl alcohol to get concentrations of 100 mg/ml to 400 mg/ml. Standard compounds of BHA, BHT and vitamin E, which are recognized as strong anti-oxidants, and ZR drink described in Example 4 were also employed for comparison. Concentration of standard compounds in ethyl alcohol was 100 mg/ml each. The assay method to determine the scavenging activity of free radical DPPH was as described below.
Optical density OD was measured at 517 nm at 0 mm and 30 mm after mixing. Percent free radical scavenging activity was calculated as follows.
Percent activity=(Ac 1−(At2−Ab 1)}/Ac2×100,
Where Ac1=of control at 0 mm
Ac2=OD of control at 30 mm

Turning to `COc1ccc(O)c(C(C)(C)C)c1` [BHA], the “Percent activity (free radical scavenging)” value in experiment [1] and in experiment [3] was 83.0% each time. Also, in experiment [2], the “Percent activity (POV) = 100 x OD of sample or standard / OD of control” value amounted to 8.9%.
Take `Cc1cc(C(C)(C)C)c(O)c(C(C)(C)C)c1` [BHT]: the “Percent activity (free radical scavenging)” value in experiment [1] and in experiment [3] was 83.4% throughout. Besides, the “Percent activity (POV) = 100 x OD of sample or standard / OD of control” value in experiment [2] is recorded as 13.5%.
Turning to vitamin E, the “Percent activity (free radical scavenging)” value in experiment [1] and in experiment [3] was 83.0% each time. Besides, in experiment [2], the “Percent activity (POV) = 100 x OD of sample or standard / OD of control” value worked out at 0%.
